# Assays:
# Autotaxin (ATX) = Autotaxin (ATX) (Homo sapiens (Human), UniProt Q13822); assay: ATX bioactivity assay (Amplex Red / choline oxidase / HRP fluorescence, LPC 16:0 substrate); type: biochemical; details: 30 min room temperature
# Protocol: Effect Example 1 Bioactivity Assay
# Preparation and Treatment
# Stock Solution Preparation
# A 10 mM DMSO stock solution was formulated for each compound. A 30 mM DMSO stock solution was formulated for positive control HA130.
# The DMSO stock solutions were stored at room temperature in a desiccator for a short period of time or at −20° C. for a long period of time.
# All compounds were serially 3-fold diluted in DMSO from 10 μM to the 10th concentration.
# A 1000× positive control (10 mM, HA130) and a 1000× negative control (100% DMSO) were prepared.
# The plates were shaken for 5 min.
# Preparation of 1× Reaction Buffer:
# 5× reaction buffer and cold water were mixed well in a volume ratio of 1:4.
# Preparation of 20 U/mL Choline Oxidase Stock Solution:
# 1 tube of choline oxide in a kit was dissolved in 1× reaction buffer. The aliquots were frozen at −20° C.
# Preparation of 200 U/mL Horseradish Peroxidase (HRP) Stock Solution:
# 1 tube of HRP in a kit was dissolved in 1 mL of 1× reaction buffer. The aliquots were frozen at −20° C.
# Preparation of 20 mM Amplex® Red Reagent (for Detection) Stock Solution
# Amplex Red reagent and DMSO were equilibrated at room temperature. 1 tube of Amplex Red reagent in a kit was dissolved in 200 μL of DMSO.
# a) 2×ATX ([…]), 2×HRP ([…]), 2× choline oxidase (0.2 U/mL) were added to 1× reaction buffer.
# b) 20 μL of the reaction mixture was added to the plate (PE, 6007270) (refer to step a).
# c) 40 nL of diluent was added to the plate using Echo (refer to “Preparation”).
# d) 2×LPC (16:0) (60 mM) and 2× Amplex® Red ([…]) were prepared using 1× reaction buffer.
# e) 20 μL of the mixture was added to the plate (refer to step d).
# f) The plate was shaken for 30 s and allowed to stand at room temperature for 30 min.
# g) The plate was examined using Envision, and the procedure was as follows: Excitation at 530 nm; and Emission at 590 nm.
# Formula for Calculating % Inhibition (Percent Inhibition Rate) as Follows:
# FLU: Fluorescence (fluorescence reading)
# FLUpositive: Average fluorescence value in positive control wells (10 μM HA130) in the plate.
# FLUvehicle: Average fluorescence value in negative control wells (0.1% DMSO) in the plate.
# Calculation of IC50 and Dose-Response Curve:
# IC50 of the compounds was calculated via a non-linear regression line (dose-variable slope) fitted using % inhibition and log of compound concentration. The software used was Graphpad 5.0. Y=Bottom+(Top−Bottom)/(1+10^((Log IC50−X)×Hill Slope))
# X: log of inhibitor concentration
# CYP3A4 = CYP3A4 (Homo sapiens (Human), UniProt P08684); assay: Time-dependent inhibition of CYP3A4 (TDI assay, human liver microsomes); type: in vitro ADME; details: for CYP3A4 TDI % @ 10 μM: human liver microsomes, Midazolam substrate, 30 min with NADPH vs 0 min; for time-dependent inhibition on CYP3A4 (conclusion): conclusion drawn from Table 3, 10 μM
# Protocol: Effect Example 3. Time-Dependent Inhibition of CYP3A4
# 1. Preheating potassium phosphate buffer (K-buffer), pH 7.4: 100 mM potassium phosphate buffer (K-buffer) was prepared by mixing 9.5 mL of solution A with 40.5 mL of solution B, diluting to 500 mL with ultrapure water, and then adjusting to pH 7.4 with KOH or H3PO4, wherein the solution A (1M potassium dihydrogenphosphate) was prepared by dissolving 136.5 g of potassium dihydrogenphosphate in […] of ultrapure water.
# 2. Preparation of human liver microsome suspension (1.3 mg/mL, 1.3×, stock: 20 mg/mL): 100 μL of human liver microsome suspension (20 mg/mL) was added into […] of K-buffer.
# 3. Preparation of NADPH solution (4.167 mg/mL, 5 mM): 8.3 mg of NADPH was added into 2 mL of buffer.
# 4. Preparation of substrate solution (1.5× final): 1.5 μL of 10 mM Midazolam was added to 998.5 μL of K-buffer to yield the substrate mixture.
# 5. Preparation of 100× test compound, reference and blank control solutions: 3 μL of 10 mM stock solution of test compound was added to 27 μL of ACN; 3 μL of positive control stock solution was added to 27 μL of ACN; and 3 μL of DMSO was added to 27 μL of ACN to serve as blank control.
# 6. Primary preheating system: An NADPH-free system for 0 min incubation: 78 μL of 1.3× human liver microsome solution (step 2) was mixed with 1 μL of the 100× stock solutions of positive control, test compound, or blank control (step 5); A system containing NADPH for 30 min incubation: 78 μL of 1.3× human liver microsome solution (step 2) was mixed with 1 μL of the 100× stock solutions of positive control, test compound, or blank control (step 5).
# 7. Secondary preheating system: 150 μL of the substrate solution prepared in step 4 was added into a deep well plate together with the NADPH solution from step 3
# 8. The samples were preheated for 10 min in a 37° C. water bath.
# 9. Reaction procedure: (1) reaction for 0 min: 21 μL of K-buffer was added to the primary preheating system and mixed well without incubation; 20 μL of the mixture was immediately transferred into the plate of the secondary preheating system; after mixing, the secondary system was incubated in a 37° C. water bath for 15 min, and 60 μL of the reaction mixture was added into 120 μL of acetonitrile containing internal standard to terminate the reaction; and (2) reaction for 30 min: 21 μL of NADPH was added into the primary preheating system for a 30-min incubation after mixing; 20 μL of the mixture was added into the secondary preheating system prior to mixing; the mixture was incubated in a 37° C. water bath for 15 min, and 60 μL of the reaction mixture was added into 120 μL of acetonitrile containing internal standard to terminate the reaction.
# 10. After termination, the samples were shaken on a shaker at 600 rpm for 10 min and centrifuged at 5594 g for 15 min prior to LC-MS/MS analysis.
# Chain of CYP3A4 (P08684 whole entry): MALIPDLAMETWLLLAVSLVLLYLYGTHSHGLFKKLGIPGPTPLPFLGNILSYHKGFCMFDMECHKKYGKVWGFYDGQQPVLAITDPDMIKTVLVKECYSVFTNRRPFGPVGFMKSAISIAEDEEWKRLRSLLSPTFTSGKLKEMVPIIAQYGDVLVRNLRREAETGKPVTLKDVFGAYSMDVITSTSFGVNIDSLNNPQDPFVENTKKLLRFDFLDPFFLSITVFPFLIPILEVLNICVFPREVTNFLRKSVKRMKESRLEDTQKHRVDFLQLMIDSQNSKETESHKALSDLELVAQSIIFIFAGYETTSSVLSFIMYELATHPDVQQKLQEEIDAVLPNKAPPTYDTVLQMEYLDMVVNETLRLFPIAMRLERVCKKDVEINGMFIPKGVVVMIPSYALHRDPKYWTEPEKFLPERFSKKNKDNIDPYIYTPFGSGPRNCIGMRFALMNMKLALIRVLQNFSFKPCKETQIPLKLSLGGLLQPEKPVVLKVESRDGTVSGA
Structure (SMILES),IC50 (Autotaxin (ATX)) [nM],CYP3A4 TDI % @ 10 μM (CYP3A4) [%],time-dependent inhibition on CYP3A4 (conclusion) (CYP3A4)
"CCc1nn2ccc(N3CCN(CC(=O)N4CC(C)(O)C4)CC3)nc2c1N(C)c1nc(-c2ccc(F)cc2)c(C#N)s1 [Compound S-0120, 2-((2-ethyl-5-(4-(2-(3-hydroxy-3-methylazetidin-1-yl)-2-oxoethyl)piperazin-1-yl)pyrazolo[1,5-a]pyrimidin-3-yl)(methyl)amino)-4-(4-fluorophenyl)thiazole-5-carbonitrile]",41,–,–
"CCc1nn2ccc(N3CCN(CC(=O)N4CC(O)C4)CC3)cc2c1N(C)c1nc(-c2ccc(F)cc2)c(C#N)s1 [Compound S-0040, 2-((2-ethyl-5-(4-(2-(3-hydroxyazetidin-1-yl)-2-oxoethyl)piperazin-1-yl)pyrazolo[1,5-a]pyridin-3-yl)(methyl)amino)-4-(4-fluorophenyl)thiazole-5-carbonitrile]",767,–,–
"CCc1nn2ccc(N3CCN(CC(=O)N4CC(O)C4)CC3)nc2c1N(C)c1nc(-c2ccc(F)c(F)c2)c(C#N)s1 [Compound S-0121, 4-(3,4-difluorophenyl)-2-((2-ethyl-5-(4-(2-(3-hydroxyazetidin-1-yl)-2-oxoethyl)piperazin-1-yl)pyrazolo[1,5-a]pyrimidin-3-yl)(methyl)amino)thiazole-5-carbonitrile]",61,–,–
"CN(c1nc(-c2ccc(F)cc2)c(C#N)s1)c1c2cc(N3CCN(CC(=O)N4CC(O)C4)CC3)cc(F)c2nn1C1CC1 [Compound S-0126, 2-((2-cyclopropyl-7-fluoro-5-(4-(2-(3-hydroxyazetidin-1-yl)-2-oxoethyl)piperazin-1-yl)-2H-indazol-3-yl)(methyl)amino)-4-(4-fluorophenyl)thiazole-5-carbonitrile]",100,–,–
"CCN(c1nc(-c2ccc(F)c(F)c2)c(C#N)s1)c1c2cc(N3CCN(CC(=O)N4CC(O)C4)CC3)cc(F)c2nn1CC [Compound S-0123, 4-(3,4-difluorophenyl)-2-(ethyl(2-ethyl-7-fluoro-5-(4-(2-(3-hydroxyazetidin-1-yl)-2-oxoethyl)piperazin-1-yl)-2H-indazol-3-yl)amino)thiazole-5-carbonitrile]",32,–,–
"CCc1nn2c(C)cc(N3CCN(CC(=O)N4CC(O)C4)[C@H](C)C3)nc2c1N(C)c1nc(-c2ccc(F)cc2)c(C#N)s1 [Compound S-0074, (R)-2-((2-ethyl-5-(4-(2-(3-hydroxyazetidin-1-yl)-2-oxoethyl)-3-methylpiperazin-1-yl)-7-methylpyrazolo[1,5-a]pyrimidin-3-yl)(methyl)amino)-4-(4-fluorophenyl)thiazole-5-carbonitrile]",207,–,–
"CCc1nn2c(C)cc(N3CCN(CC(=O)N4CC(O)C4)[C@@H](C)C3)nc2c1N(C)c1nc(-c2ccc(F)cc2)c(C#N)s1 [Compound S-0075, (S)-2-((2-ethyl-5-(4-(2-(3-hydroxyazetidin-1-yl)-2-oxoethyl)-3-methylpiperazin-1-yl)-7-methylpyrazolo[1,5-a]pyrimidin-3-yl)(methyl)amino)-4-(4-fluorophenyl)thiazole-5-carbonitrile]",88,–,–
"CCc1nn2ccc(N3CCN(CC(=O)N4CC(O)C4)CC3)nc2c1N(CC)c1nc(-c2ccc(F)cc2)c(C#N)s1 [Compound S-0082, 2-(ethyl(2-ethyl-5-(4-(2-(3-hydroxyazetidin-1-yl)-2-oxoethyl)piperazin-1-yl)pyrazolo[1,5-a]pyrimidin-3-yl)amino)-4-(4-fluorophenyl)thiazole-5-carbonitrile]",20,–,–
"CC(C)n1nc2c(F)cc(N3CCN(CC(=O)N4CC(O)C4)CC3)cc2c1N(C)c1nc(-c2ccc(F)cc2)c(C#N)s1 [Compound S-0125, 2-((7-fluoro-5-(4-(2-(3-hydroxyazetidin-1-yl)-2-oxoethyl)piperazin-1-yl)-2-isopropyl-2H-indazol-3-yl)(methyl)amino)-4-(4-fluorophenyl)thiazole-5-carbonitrile]",178,–,–
"CCc1nn2c(C)cc(N3CCN(CC(=O)N4CC(O)C4)C[C@@H]3C)nc2c1N(C)c1nc(-c2ccc(F)cc2)c(C#N)s1 [Compound S-0071, (S)-2-((2-ethyl-5-(4-(2-(3-hydroxyazetidin-1-yl)-2-oxoethyl)-2-methylpiperazin-1-yl)-7-methylpyrazolo[1,5-a]pyrimidin-3-yl)(methyl)amino)-4-(4-fluorophenyl)thiazole-5-carbonitrile]",46,–,–
"CCc1nn2ccc(N3CCN(CC(=O)N4CC(O)C4)CC3)nc2c1N(C)c1nc(-c2ccc(F)cc2)c(C#N)s1 [Compound S-0041, 2-((2-ethyl-5-(4-(2-(3-hydroxyazetidin-1-yl)-2-oxoethyl)piperazin-1-yl)pyrazolo[1,5-a]pyrimidin-3-yl)(methyl)amino)-4-(4-fluorophenyl)thiazole-5-carbonitrile]",–,−4.00,no time-dependent inhibition on CYP3A4
"CCc1nn2c(C)cc(N3CCN(CC(=O)N4CC(O)C4)CC3)nc2c1N(CC)c1nc(-c2ccc(F)cc2)c(C#N)s1 [Compound S-0069, 2-(ethyl(2-ethyl-5-(4-(2-(3-hydroxyazetidin-1-yl)-2-oxoethyl)piperazine-1-yl)-7-methylpyrazolo[1,5-a]pyrimidin-3-yl)amino)-4-(4-fluorophenyl) thiazole-5-carbonitrile]",43,–,–
"O=C1S/C(=C\c2ccc(OCc3cccc(B(O)O)c3)cc2)C(=O)N1Cc1ccc(F)cc1 [HA130, reference compound]",24,–,–
"CCn1nc2cnc(N3CCN(CC(=O)N4CC(O)C4)CC3)cc2c1N(C)c1nc(-c2ccc(F)cc2)c(C#N)s1 [Compound S-0044, 2-((2-ethyl-5-(4-(2-(3-hydroxyazetidin-1-yl)-2-oxoethyl)piperazin-1-yl)-2H-pyrazolo[3,4-c]pyridin-3-yl)(methyl)amino)-4-(4-fluorophenyl) thiazole-5-carbonitrile]",–,15.3,no time-dependent inhibition on CYP3A4
"CCn1nc2ncc(N3CCN(CC(=O)N4CC(O)C4)CC3)cc2c1N(C)c1nc(-c2ccc(F)cc2)c(C#N)s1 [Compound S-0043, 2-((2-ethyl-5-(4-(2-(3-hydroxyazetidin-1-yl)-2-oxoethyl)piperazin-1-yl)-2H-pyrazolo[3,4-b]pyridin-3-yl)(methyl)amino)-4-(4-fluorophenyl)thiazole-5-carbonitrile]",–,12.38,no time-dependent inhibition on CYP3A4

# Reference: patent US11591342B2, “Heterocyclic compound, application thereof and pharmaceutical composition comprising same” (SUZHOU SINOVENT PHARMACEUTICALS CO., LTD., priority 2018, dated 2023)
